Legend:
Assay type in all cases: in vivo
[1] = tested on: AMARE; assay: Pre-emergence herbicidal activity, glasshouse pot test; conditions: rate 1000 g/Ha, evaluated after 13 days, scale 0-5
In short: (§1)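 Damage was rated 13 days after treatment on a 0–5 scale (0 = no damage, 5 = total damage). Pots of seeds in standard soil were sprayed one day after sowing with an aqueous solution from an acetone/water (50:50), 0.5% Tween 20 formulation and kept at 24/16 °C day/night.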

[2] = tested on: ALOMY; assay: as above; conditions: rate 1000 g/Ha, evaluated after 13 days, scale 0-5
In short: as §1

[3] = tested on: ECHCG; assay: as above; conditions: rate 1000 g/Ha, evaluated after 13 days, scale 0-5
In short: as §1

[4] = tested on: SETFA; assay: as above; conditions: rate 1000 g/Ha, evaluated after 13 days, scale 0-5
In short: as §1

[5] = tested on: ABUTH; assay: Post-emergence herbicidal activity, glasshouse pot test; conditions: Abutilon theophrasti; application post-emergence; rate 1000 g/Ha; evaluated after 13 days
In short: (§2)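 Foliar application to 8-day-old plants using a 0.5% Tween 20 acetone/water carrier; phytotoxicity is scored visually from 0 to 5 after 13 days of growth at 24/16 °C day/night.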

[6] = tested on: AMARE; assay: as above; conditions: Amaranthus retroflexus; application post-emergence; rate 1000 g/Ha; evaluated after 13 days
In short: as §2

[7] = tested on: ALOMY; assay: as above; conditions: Alopecurus myosuroides; application post-emergence; rate 1000 g/Ha; evaluated after 13 days
In short: as §2

[8] = tested on: ECHCG; assay: as above; conditions: Echinochloa crus-galli; application post-emergence; rate 1000 g/Ha; evaluated after 13 days
In short: as §2

[9] = tested on: SETFA; assay: as above; conditions: Setaria faberi; application post-emergence; rate 1000 g/Ha; evaluated after 13 days
In short: as §2

[10] = tested on: ZEAMX; assay: as above; conditions: Zea mays; application post-emergence; rate 1000 g/Ha; evaluated after 13 days
In short: as §2

[11] = tested on: ABUTH; assay: Pre-emergence herbicidal activity, glasshouse pot test; conditions: rate 1000 g/Ha, evaluated after 13 days, scale 0-5
In short: as §1

[12] = tested on: ZEAMX; assay: as above; conditions: rate 1000 g/Ha, evaluated after 13 days, scale 0-5
In short: as §1

SMILES | AMARE damage score, application pre-emergence [1] | ALOMY damage score, application pre-emergence [2] | ECHCG damage score, application pre-emergence [3] | SETFA damage score, application pre-emergence [4] | Post-emergence herbicidal activity ABUTH (damage score 0-5) [5] | Post-emergence herbicidal activity AMARE (damage score 0-5) [6] | Post-emergence herbicidal activity ALOMY (damage score 0-5) [7] | Post-emergence herbicidal activity ECHCG (damage score 0-5) [8] | Post-emergence herbicidal activity SETFA (damage score 0-5) [9] | Post-emergence herbicidal activity ZEAMX (damage score 0-5) [10] | ABUTH damage score, application pre-emergence [11] | ZEAMX damage score, application pre-emergence [12]
CCOC1C(O)N(c2cc(C(F)(F)F)c(-c3cncnc3)cn2)C(=O)N1C (stereo not shown) [Compound A14] | 5 | 4 | 5 | 5 | 5 | 5 | 4 | 5 | 5 | 3 | – | –
COC1C(O)N(c2cc(C(F)(F)F)c(-c3cncnc3)cn2)C(=O)N1C (stereo not shown) [Compound A15] | 5 | 3 | 3 | 4 | 5 | 5 | 4 | 4 | 4 | 0 | – | –
CCN1CC(O)N(c2cc(C(F)(F)F)ccn2)C1=O (stereo not shown) [Compound A95] | 5 | – | 5 | 5 | 5 | 5 | – | 5 | 5 | 2 | 5 | 1
CCO[C@@H]1[C@@H](OC(=O)[C@](OC)(c2ccccc2)C(F)(F)F)N(c2cc(C(F)(F)F)ccn2)C(=O)N1C [Compound A102] | 5 | – | 4 | 3 | 5 | 5 | – | 2 | 1 | 1 | 5 | 1
CCO[C@H]1[C@H](OC(=O)[C@](OC)(c2ccccc2)C(F)(F)F)N(c2cc(C(F)(F)F)ccn2)C(=O)N1C [Compound A103] | 2 | – | 1 | 4 | 0 | 2 | – | 0 | 1 | 1 | 1 | 1
CON1C(=O)N(c2cc(C(F)(F)F)ccn2)C(NCc2ccccc2)[C@@H]1C (stereo partly shown) [Compound A104] | 5 | – | 5 | 5 | 5 | 5 | – | 5 | 5 | 5 | 4 | 3
COCc1cnc(N2C(=O)N(C)C(C)C2O)cc1C(F)(F)F (stereo not shown) [Compound A105] | 5 | – | 5 | 5 | 5 | 5 | – | 5 | 5 | 5 | 5 | 4
CC1C(O)N(c2cc(C(F)(F)F)ccn2)C(=O)N1C(F)F (stereo not shown) [Compound A106] | 5 | – | 4 | 3 | 5 | 5 | – | 4 | 4 | 1 | 5 | 2
C=CCN1C(=O)N(c2cc(C(F)(F)F)ccn2)C(O)C1C (stereo not shown) [Compound A107] | 5 | – | 5 | 4 | 5 | 5 | – | 5 | 5 | 3 | 5 | 2
COCCOCc1cnc(N2C(=O)N(C)C(C)C2O)cc1C(F)(F)F (stereo not shown) [Compound A108] | 5 | – | 5 | 4 | 5 | 5 | – | 5 | 5 | 5 | 5 | 2
